Measurements reported in the NIST ThermoML archive (doi:10.1021/je700499d).

Assays:
[1] = xn = mol fraction of the nth substance listed; details: 101 kPa, Liquid
[2] = 101 kPa, Liquid

OCCCCO [1,4-butanediol] + OCCCO
[1], x1 = 1
Details | mass density [kg/m3]
293.15 K | 1016.37
298.15 K | 1013.04
303.15 K | 1009.96
308.15 K | 1006.75
313.15 K | 1003.55
318.15 K | 1000.72
323.15 K | 997.8
328.15 K | 994.41

OCCCO [propan-1,3-diol]
[2]
Details | mass density [kg/m3]
293.15 K | 1053.66
298.15 K | 1050.29
303.15 K | 1047.09
308.15 K | 1043.92
313.15 K | 1040.61
318.15 K | 1037.6
323.15 K | 1034.51
328.15 K | 1031

OCCCCO [1,4-butanediol]
[2]
Details | mass density [kg/m3]
293.15 K | 1016.37
298.15 K | 1013.04
303.15 K | 1009.96
308.15 K | 1006.75
313.15 K | 1003.55
318.15 K | 1000.72
323.15 K | 997.8
328.15 K | 994.41

CC(O)CO (configuration not stated) [1,2-propanediol]
[2]
Details | mass density [kg/m3]
293.15 K | 1036.57
298.15 K | 1032.86
303.15 K | 1029.15
308.15 K | 1025.57
313.15 K | 1021.44
318.15 K | 1017.59
323.15 K | 1013.74
328.15 K | 1009.71

OCCCCO [1,4-butanediol] + CC(O)CO
mass density [kg/m3], [1]
Details | x1 = 0.0858 | x1 = 0.1743 | x1 = 0.2657 | x1 = 0.3602 | x1 = 0.4578 | x1 = 0.5588 | x1 = 0.6633 | x1 = 0.7716 | x1 = 0.8837 | x1 = 1
293.15 K | 1034.9 | 1033.19 | 1031.46 | 1029.77 | 1027.85 | 1025.52 | 1023.19 | 1020.85 | 1018.55 | 1016.37
298.15 K | 1031.31 | 1029.67 | 1028 | 1026.34 | 1024.48 | 1022.17 | 1019.88 | 1017.57 | 1015.25 | 1013.04
303.15 K | 1027.73 | 1026.21 | 1024.62 | 1023.01 | 1021.19 | 1018.94 | 1016.79 | 1014.47 | 1012.17 | 1009.96
308.15 K | 1024.25 | 1022.83 | 1021.31 | 1019.74 | 1018 | 1015.76 | 1013.64 | 1011.33 | 1009.03 | 1006.75
313.15 K | 1020.28 | 1019 | 1017.64 | 1016.12 | 1014.43 | 1012.35 | 1010.33 | 1008.06 | 1005.78 | 1003.55
318.15 K | 1016.58 | 1015.49 | 1014.21 | 1012.83 | 1011.22 | 1009.28 | 1007.33 | 1005.16 | 1002.94 | 1000.72
323.15 K | 1012.91 | 1011.97 | 1010.78 | 1009.47 | 1007.97 | 1006.13 | 1004.3 | 1002.18 | 1000.03 | 997.8
328.15 K | 1009 | 1008.2 | 1007.11 | 1005.84 | 1004.39 | 1002.63 | 1000.83 | 998.81 | 996.69 | 994.41
